Values of other authors in patent publication US10925895B2, “Composition and method of using medicament for treatment of cancers and tumors” (priority 2014, dated 2021).
Where two headings read alike, the source gives them in different places.

Legend:
[1] = system: Enterococcus faelicalis
[2] = system: organic tissue

SMILES	effectiveness against Enterococcus faecalis [1]	effectiveness as tissue dissolving agent ([2]; 5.25% for 40 minutes)	effectiveness as tissue dissolving agent ([2]; at 1.3-2.5%)
[Ca+2].[OH-].[OH-] [Calcium hydroxide, calcium hydroxide]	ineffective	–	–
OCl [Sodium hypochlorite, sodium hypochlorite]	not effective	highly effective	ineffective
